The source of these data is PubChem BioAssay AID651650 (Sanford-Burnham Center for Chemical Genomics, 2012).

The target of the assay is Neuropilin-1 (Homo sapiens) (UniProt O14786). The experiment in a line: NRP-1 b1b2 CendR peptide binding inhibitors, dose response, biochemical, FP and AlphaScreen panel (AID 651650). The following applies: NRP-1 b1b2 / RPARPAR peptide binding, FP or AlphaScreen.
The mark [1] stands for this setting: AlphaScreen, run 1, individual panel run IC50.
Where [2] appears, read: FP, run 1, individual panel run IC50.
The mark [3] stands for this setting: FP, run 2, individual panel run IC50.

The source made the active and inactive calls.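 The calls were made as follows: active = mean IC50 below 20 µM in each of the two panels, so potent in both; inactive = the rest.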 Where only a bound is given, the exact number is not on record here.

Neuropilin-1 (Homo sapiens), sequence (O14786 whole entry, looked up): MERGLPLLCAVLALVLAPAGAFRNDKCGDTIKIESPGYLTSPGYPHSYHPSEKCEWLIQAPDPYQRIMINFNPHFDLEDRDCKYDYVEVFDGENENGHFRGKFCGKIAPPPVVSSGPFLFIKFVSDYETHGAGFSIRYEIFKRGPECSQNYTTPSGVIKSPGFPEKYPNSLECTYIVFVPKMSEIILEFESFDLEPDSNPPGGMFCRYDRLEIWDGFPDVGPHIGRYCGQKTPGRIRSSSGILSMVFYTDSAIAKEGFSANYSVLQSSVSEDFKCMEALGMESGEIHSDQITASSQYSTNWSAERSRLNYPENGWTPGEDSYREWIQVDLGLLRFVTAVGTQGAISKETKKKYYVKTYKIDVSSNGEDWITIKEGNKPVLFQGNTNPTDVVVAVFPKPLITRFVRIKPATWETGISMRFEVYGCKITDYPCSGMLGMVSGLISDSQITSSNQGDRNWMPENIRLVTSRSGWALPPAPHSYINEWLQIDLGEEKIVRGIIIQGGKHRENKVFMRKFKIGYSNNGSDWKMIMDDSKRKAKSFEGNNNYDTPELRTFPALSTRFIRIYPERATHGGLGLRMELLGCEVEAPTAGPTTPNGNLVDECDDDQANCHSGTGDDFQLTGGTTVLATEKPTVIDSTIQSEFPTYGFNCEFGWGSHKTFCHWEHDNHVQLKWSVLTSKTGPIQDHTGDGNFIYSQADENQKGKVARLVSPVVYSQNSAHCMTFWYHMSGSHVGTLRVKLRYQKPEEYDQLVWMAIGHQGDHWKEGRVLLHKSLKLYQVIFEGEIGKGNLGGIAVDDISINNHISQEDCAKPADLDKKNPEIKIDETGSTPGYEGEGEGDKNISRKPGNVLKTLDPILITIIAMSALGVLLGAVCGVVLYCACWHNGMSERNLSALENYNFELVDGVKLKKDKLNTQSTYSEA

As for `c1ccc2c(CNc3ccc(CNc4ncn[nH]4)cc3)cccc2c1`, the IC50 is > 100 µM (inactive) (AlphaScreen, mean of runs); above 100 µM under setting [1]; > 95 µM (inactive) (FP, mean of runs); above 95 µM under setting [2]; above 95 µM under setting [3].

As for `NC(=O)C(c1ccc(Cl)cc1Cl)c1ncc(C(F)(F)F)cc1Cl` (stereo not given), the IC50 reads like this: (AlphaScreen, mean of runs) > 100 µM (inactive); under setting [1], above 100 µM; (FP, mean of runs) > 95 µM (inactive); under setting [2], above 95 µM; under setting [3], above 95 µM.

As for `CNc1nc(-c2ccc3c(c2)CCN3C(=O)c2ccccc2F)cs1`, the IC50 is, setting by setting: (AlphaScreen, mean of runs) > 100 µM (inactive); under setting [1], above 100 µM; (FP, mean of runs) > 95 µM (inactive); under setting [2], above 95 µM; under setting [3], above 95 µM.

Regarding `OCCC1CCCCN1CC(O)COCc1ccc(Cl)cc1` (stereo not given), the IC50 is, setting by setting: (AlphaScreen, mean of runs) > 100 µM (inactive); under setting [1], above 100 µM; (FP, mean of runs) > 95 µM (inactive); under setting [2], above 95 µM; under setting [3], above 95 µM.

Regarding `COC(=O)CCCC1=CC2=CC(=O)C(C)(OC(=O)c3cccs3)C(=O)C2=CN1CCCCO` (stereo not given), the IC50 by setting is: (AlphaScreen, mean of runs) > 100 µM (inactive); under setting [1], above 100 µM; (FP, mean of runs) > 95 µM (inactive); under setting [2], above 95 µM; under setting [3], above 95 µM.

With `Cc1csc(NC(C)c2nc3cc(C(F)(F)F)ccc3n2CCOCCO)n1` (stereo not given), the IC50 is > 100 µM (inactive) (AlphaScreen, mean of runs); above 100 µM under setting [1]; > 95 µM (inactive) (FP, mean of runs); above 95 µM under setting [2]; above 95 µM under setting [3].

For the compound `Cc1ccccc1NC(=S)NC(=O)COc1ccccc1C`, the IC50 (AlphaScreen, mean of runs) is 6.67 µM; the IC50 under setting [1] was 6.67 µM; the IC50 under setting [2] amounted to 32.6 µM; the half-maximal inhibitory concentration (IC50) under setting [3] was 35 µM. Also, for the setting “FP, mean of runs”, the IC50 entry is “inactive”.

Turning to `NS(=O)(=O)c1ccc(CNC(=S)NCc2ccc(F)cc2)cc1`, the IC50 (AlphaScreen, mean of runs) is > 100 µM (inactive); the IC50 under setting [1] is above 100 µM; the IC50 (FP, mean of runs) is > 95 µM (inactive); the half-inhibitory concentration (IC50) under setting [2] was above 95 µM; the IC50 under setting [3] was above 95 µM.

With `CC(C)COC(=O)C1C2C=CC3(CN(C(C)c4ccc(Br)cc4)C(=O)C13)O2` (stereo not given), the IC50 was > 100 µM (inactive) (AlphaScreen, mean of runs); above 100 µM under setting [1]; > 95 µM (inactive) (FP, mean of runs); above 95 µM under setting [2]; above 95 µM under setting [3].

With `COc1cccc(N2[C@@H](CC(C)=O)c3ccc(/C=C/C(C)=O)cc3S2(=O)=O)c1`, the IC50 runs as follows: (AlphaScreen, mean of runs) > 100 µM (inactive); under setting [1], above 100 µM; (FP, mean of runs) > 95 µM (inactive); under setting [2], above 95 µM; under setting [3], above 95 µM.

In the case of `CCOC(=O)Cc1csc(NC(=O)CSc2ncnc3c2cnn3-c2ccccc2Cl)n1`, the IC50 (AlphaScreen, mean of runs) was > 100 µM (inactive); the half-inhibitory concentration (IC50) under setting [1] is above 100 µM; the IC50 (FP, mean of runs) is > 95 µM (inactive); the IC50 under setting [2] is above 95 µM; the IC50 under setting [3] is above 95 µM.

For the compound `CCN(CC)C(=O)C1CCCN(C(=O)Nc2ccc3nsnc3c2)C1` (stereo not given), the IC50 runs as follows: (AlphaScreen, mean of runs) > 100 µM (inactive); under setting [1], above 100 µM; (FP, mean of runs) > 95 µM (inactive); under setting [2], above 95 µM; under setting [3], above 95 µM.

In the case of `Cc1cc(C)cc(N(CCC(=O)O)S(=O)(=O)c2ccc3ccccc3c2)c1`, the IC50 is, setting by setting: (AlphaScreen, mean of runs) > 100 µM (inactive); under setting [1], above 100 µM; (FP, mean of runs) > 95 µM (inactive); under setting [2], above 95 µM; under setting [3], above 95 µM.

On to `Cn1c(=O)c2[nH]c(COc3ccccc3)nc2n(C)c1=O`, for which the IC50 by setting is: (AlphaScreen, mean of runs) > 100 µM (inactive); under setting [1], above 100 µM; (FP, mean of runs) > 95 µM (inactive); under setting [2], above 95 µM; under setting [3], above 95 µM.

`COc1ccc(/C=N/NC(=O)c2cc(C(C)(C)C)[nH]n2)cc1COc1ccc(F)cc1F`: the IC50 is, setting by setting: (AlphaScreen, mean of runs) > 100 µM (inactive); under setting [1], above 100 µM; (FP, mean of runs) > 95 µM (inactive); under setting [2], above 95 µM; under setting [3], above 95 µM.

Consider `CN(C)/C=C/c1c([N+](=O)[O-])c2ccc(O)cc2n1-c1ccccc1`, for which the IC50 runs as follows: (AlphaScreen, mean of runs) > 100 µM (inactive); under setting [1], above 100 µM; (FP, mean of runs) > 95 µM (inactive); under setting [2], above 95 µM; under setting [3], above 95 µM.

Consider `CC1CCN(C(=O)CSc2nncn2C)CC1`, for which the IC50 (AlphaScreen, mean of runs) was > 100 µM (inactive); the half-maximal inhibitory concentration (IC50) under setting [1] was above 100 µM; the IC50 (FP, mean of runs) was > 95 µM (inactive); the IC50 under setting [2] is above 95 µM; the IC50 under setting [3] was above 95 µM.

In the case of `O=C(O)c1ccccc1CSc1ccccn1`, the IC50 is, setting by setting: (AlphaScreen, mean of runs) 16.5 µM; under setting [1], 16.5 µM; (FP, mean of runs) > 95 µM (inactive); under setting [2], above 95 µM; under setting [3], above 95 µM.

As for `Cn1cccc1C1Nc2ccccc2NC2=C1C(=O)CC(C)(C)C2` (stereo not given), the IC50 is > 100 µM (inactive) (AlphaScreen, mean of runs); above 100 µM under setting [1]; > 95 µM (inactive) (FP, mean of runs); above 95 µM under setting [2]; above 95 µM under setting [3].

As for `O=C(CSC1CN(C(c2ccccc2)c2ccccc2)C1)N/N=C/c1ccccc1`, the half-inhibitory concentration (IC50) by setting is: (AlphaScreen, mean of runs) 5.56 µM; under setting [1], 5.56 µM; (FP, mean of runs) > 95 µM (inactive); under setting [2], above 95 µM; under setting [3], above 95 µM.

For the compound `CC(C)Oc1ccc(F)cc1-c1cc(C(=O)NCc2ccc(F)cc2)[nH]n1`, the IC50 is, setting by setting: (AlphaScreen, mean of runs) > 100 µM (inactive); under setting [1], above 100 µM; (FP, mean of runs) > 95 µM (inactive); under setting [2], above 95 µM; under setting [3], above 95 µM.

Consider `C=CCC1(CC=C)CCCN1C(=O)c1cc(COc2cccc(OC)c2)on1`, for which the IC50 is, setting by setting: (AlphaScreen, mean of runs) > 100 µM (inactive); under setting [1], above 100 µM; (FP, mean of runs) > 95 µM (inactive); under setting [2], above 95 µM; under setting [3], above 95 µM.

For the compound `CCC1CCCCN1CCCNC(=O)C1CCCN(S(=O)(=O)N2CC(C)CC(C)C2)C1` (stereo not given), the IC50 is, setting by setting: (AlphaScreen, mean of runs) 6.29 µM; under setting [1], 6.29 µM; (FP, mean of runs) > 95 µM (inactive); under setting [2], above 95 µM; under setting [3], above 95 µM.

With `O=C(CSc1nc2ccc(Cl)cc2[nH]1)NCCc1ccccc1`, the IC50 (AlphaScreen, mean of runs) is > 100 µM (inactive); the IC50 under setting [1] was above 100 µM; the IC50 (FP, mean of runs) was > 95 µM (inactive); the half-inhibitory concentration (IC50) under setting [2] is above 95 µM; the IC50 under setting [3] was above 95 µM.

With `Cc1cc2cc(CNC(=O)c3ccco3)ccc2n1C`, the IC50 runs as follows: (AlphaScreen, mean of runs) > 100 µM (inactive); under setting [1], above 100 µM; (FP, mean of runs) > 95 µM (inactive); under setting [2], above 95 µM; under setting [3], above 95 µM.

Take `O=C(CCCNC(=O)/C(=C\c1ccc(F)cc1)NC(=O)c1ccccc1)OCc1ccccc1`: the IC50 (AlphaScreen, mean of runs) was > 100 µM (inactive); the IC50 under setting [1] is above 100 µM; the IC50 (FP, mean of runs) was > 95 µM (inactive); the IC50 under setting [2] was above 95 µM; the IC50 under setting [3] is above 95 µM.

Consider `COc1ccc(Cn2c3ccc(OC)cc3c3nc4ccccc4nc32)cc1`, for which the IC50 entry (AlphaScreen, mean of runs) was “inactive”. Moreover, the IC50 runs as follows: under setting [1], 38.9 µM; (FP, mean of runs) > 95 µM (inactive); under setting [2], above 95 µM; under setting [3], above 95 µM.

In the case of `Cc1nc2c(OCCC3CCCCC3)cccn2c1N(C)C(=O)CCC1CCCC1`, the IC50 is, setting by setting: (AlphaScreen, mean of runs) > 100 µM (inactive); under setting [1], above 100 µM; (FP, mean of runs) > 95 µM (inactive); under setting [2], above 95 µM; under setting [3], above 95 µM.

In the case of `Cc1ccc(NC=C(S(=O)(=O)c2ccccc2)S(=O)(=O)c2ccccc2)cc1`, the IC50 is, setting by setting: (AlphaScreen, mean of runs) > 100 µM (inactive); under setting [1], above 100 µM; (FP, mean of runs) > 95 µM (inactive); under setting [2], above 95 µM; under setting [3], above 95 µM.

Take `N#CC(C#N)=Cc1cc2ccccc2nc1N1CCCCC1`: the IC50 was > 100 µM (inactive) (AlphaScreen, mean of runs); above 100 µM under setting [1]; > 95 µM (inactive) (FP, mean of runs); above 95 µM under setting [2]; above 95 µM under setting [3].

Regarding `COC(=O)[C@@]1(Cc2ccc(OC)cc2)[C@H]2c3cc(C(=O)N4CCCC4)n(CCN4CCOCC4)c3C[C@H]2CN1C(=O)c1ccccc1`, the IC50 by setting is: (AlphaScreen, mean of runs) > 100 µM (inactive); under setting [1], above 100 µM; (FP, mean of runs) > 95 µM (inactive); under setting [2], above 95 µM; under setting [3], above 95 µM.

On to `O=C(/C=C/c1ccccc1)c1ccccn1`, for which the IC50 reads like this: (AlphaScreen, mean of runs) > 100 µM (inactive); under setting [1], above 100 µM; (FP, mean of runs) > 95 µM (inactive); under setting [2], above 95 µM; under setting [3], above 95 µM.

Turning to `Cc1ccccc1Nc1cc(=O)oc2ccccc12`, the IC50 (AlphaScreen, mean of runs) was > 100 µM (inactive); the half-maximal inhibitory concentration (IC50) under setting [1] was above 100 µM; the IC50 (FP, mean of runs) was > 95 µM (inactive); the 50% inhibitory concentration (IC50) under setting [2] is above 95 µM; the 50% inhibitory concentration (IC50) under setting [3] is above 95 µM.

Regarding `COc1ccccc1N1CCN(C2CCCN(C(=O)Cn3cccn3)C2)CC1` (stereo not given), the IC50 reads like this: (AlphaScreen, mean of runs) > 100 µM (inactive); under setting [1], above 100 µM; (FP, mean of runs) > 95 µM (inactive); under setting [2], above 95 µM; under setting [3], above 95 µM.

For `CCc1ccccc1NC(=O)c1ccccc1N1C(=O)C2C3C=CC(C3)C2C1=O` (stereo not given), the IC50 result (AlphaScreen, mean of runs) was “inactive”. Besides, the IC50 by setting is: under setting [1], 96.8 µM; (FP, mean of runs) > 95 µM (inactive); under setting [2], above 95 µM; under setting [3], above 95 µM.
